The record followed here is patent publication US20240199587A1, “HETEROCYCLIC COMPOUNDS” (Hoffmann-La Roche Inc., priority 2021, published 2024).

The assay concerns the target T1, MAGL (Homo sapiens, UniProt Q99685).
T1 sequence (Q99685 1-303): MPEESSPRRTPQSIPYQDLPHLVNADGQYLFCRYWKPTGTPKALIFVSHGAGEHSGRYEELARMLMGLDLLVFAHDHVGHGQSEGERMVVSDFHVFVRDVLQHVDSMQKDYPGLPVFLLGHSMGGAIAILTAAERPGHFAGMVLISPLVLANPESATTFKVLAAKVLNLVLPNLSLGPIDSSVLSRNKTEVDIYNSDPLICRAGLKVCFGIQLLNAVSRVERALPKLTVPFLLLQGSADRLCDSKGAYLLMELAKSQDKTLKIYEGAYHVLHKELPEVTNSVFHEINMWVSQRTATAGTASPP
Nature of the assay: 2-AG assay (MAGL inhibitory activity, hydrolysis of 2-arachidonoylglycerol to arachidonic acid followed by mass spectrometry). Type of assay: biochemical. To be noted: 8 μM 2-arachidonoylglycerol, 15 min pre-incubation, 30 min incubation at RT, RapidFire MS readout. The procedure, abridged: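 Arachidonic acid released from 8 μM 2-arachidonoylglycerol was quantified by online SPE triple-quadrupole MS (negative ESI, 303.1→259.1), normalised to d8-arachidonic acid internal standard. Reaction ran 30 min at RT after 15 min RT compound pre-incubation with […] MAGL in TRIS/EDTA/Tween-20 buffer, 2.5% DMSO.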
`O=C(N1CC2(CC(n3cnc(C4CC4)n3)C2)C1)N1CC2(C1)CN(S(=O)(=O)C13CC(C(F)(F)F)(C1)C3)C2` [Example 474, [6-(3-cyclopropyl-1,2,4-triazol-1-yl)-2-azaspiro[3.3]heptan-2-yl]-[2-[[3-(trifluoromethyl)-1-bicyclo[1.1.1]pentanyl]sulfonyl]-2,6-diazaspiro[3.3]heptan-6-yl]methanone] showed an IC50 of 24.5 nM.

As to `CS(=O)(=O)c1cc(F)ccc1CC1CC2(C1)CN(C(=O)N1CC3(CC(n4cnc(C5CC5)n4)C3)C1)C2` [Example 475, [6-(3-cyclopropyl-1,2,4-triazol-1-yl)-2-azaspiro[3.3]heptan-2-yl]-[6-[(4-fluoro-2-methylsulfonyl-phenyl)methyl]-2-azaspiro[3.3]heptan-2-yl]methanone], it took 0.44 nM to reach half-maximal inhibition (IC50).

In the case of `O=C(N1CC(c2ccc(N3CC[C@H](C(F)(F)F)C3)nc2)C1)N1CC2(CC(n3cnc(C4CC4)n3)C2)C1` [Example 476, [6-(3-cyclopropyl-1,2,4-triazol-1-yl)-2-azaspiro[3.3]heptan-2-yl]-[3-[6-[(3S)-3-(trifluoromethyl)pyrrolidin-1-yl]-3-pyridyl]azetidin-1-yl]methanone], the IC50 is 0.56 nM.

Regarding `O=C(N1CC(c2ccc(NC3(C(F)(F)F)CC3)nc2)C1)N1CC2(CC(n3cnc(C4CC4)n3)C2)C1` [Example 477, [6-(3-cyclopropyl-1,2,4-triazol-1-yl)-2-azaspiro[3.3]heptan-2-yl]-[3-[6-[[1-(trifluoromethyl)cyclopropyl]amino]-3-pyridyl]azetidin-1-yl]methanone], the IC50 turned out to be 0.97 nM.

With `O=C(N1CC(c2ccc(NCC3(C(F)(F)F)CC3)cn2)C1)N1CC2(CC(n3cnc(C4CC4)n3)C2)C1` [Example 478, [6-(3-cyclopropyl-1,2,4-triazol-1-yl)-2-azaspiro[3.3]heptan-2-yl]-[3-[5-[[1-(trifluoromethyl)cyclopropyl]methylamino]-2-pyridyl]azetidin-1-yl]methanone], the IC50 was 0.74 nM.

On to `O=C(N1CC(c2cnc(N3CC(C(F)(F)F)C3)nc2)C1)N1CC2(CC(n3cnc(C4CC4)n3)C2)C1` [Example 479, [6-(3-cyclopropyl-1,2,4-triazol-1-yl)-2-azaspiro[3.3]heptan-2-yl]-[3-[2-[3-(trifluoromethyl)azetidin-1-yl]pyrimidin-5-yl]azetidin-1-yl]methanone], for which the IC50 came out at 7.5 nM.

The compound `O=C(N1CC(c2cnc(N3CC[C@H](C(F)(F)F)C3)nc2)C1)N1CC2(CC(n3cnc(C4CC4)n3)C2)C1` [Example 481, [6-(3-cyclopropyl-1,2,4-triazol-1-yl)-2-azaspiro[3.3]heptan-2-yl]-[3-[2-[(3S)-3-(trifluoromethyl)pyrrolidin-1-yl]pyrimidin-5-yl]azetidin-1-yl]methanone] displayed an IC50 of 4.07 nM.

`O=C(N1CC(c2cnc(N3CC[C@@H](C(F)(F)F)C3)nc2)C1)N1CC2(CC(n3cnc(C4CC4)n3)C2)C1` [Example 482, [6-(3-cyclopropyl-1,2,4-triazol-1-yl)-2-azaspiro[3.3]heptan-2-yl]-[3-[2-[(3R)-3-(trifluoromethyl)pyrrolidin-1-yl]pyrimidin-5-yl]azetidin-1-yl]methanone] returned an IC50 of 1.26 nM.

For `CS(=O)(=O)c1ccc(CC2CC3(C2)CN(C(=O)N2CC4(CC(n5cnc(C6CC6)n5)C4)C2)C3)c(F)c1` [Example 483, [6-(3-cyclopropyl-1,2,4-triazol-1-yl)-2-azaspiro[3.3]heptan-2-yl]-[6-[(2-fluoro-4-methylsulfonyl-phenyl)methyl]-2-azaspiro[3.3]heptan-2-yl]methanone], 0.16 nM corresponded to half-maximal inhibition (IC50).

`O=C(N1CC2(CCN(S(=O)(=O)C34CC(C(F)(F)F)(C3)C4)CC2)C1)N1CC2(CC(n3cnc(C4CC4)n3)C2)C1` [Example 484, [6-(3-cyclopropyl-1,2,4-triazol-1-yl)-2-azaspiro[3.3]heptan-2-yl]-[7-[[3-(trifluoromethyl)-1-bicyclo[1.1.1]pentanyl]sulfonyl]-2,7-diazaspiro[3.5]nonan-2-yl]methanone]: the IC50 amounted to 19.5 nM.

Compound `CS(=O)(=O)c1cccc(CN2CCC3(CC2)CN(C(=O)N2CC4(CC(n5cnc(C6CC6)n5)C4)C2)C3)c1` [Example 485, [6-(3-cyclopropyl-1,2,4-triazol-1-yl)-2-azaspiro[3.3]heptan-2-yl]-[7-[(3-methylsulfonylphenyl)methyl]-2,7-diazaspiro[3.5]nonan-2-yl]methanone] came in with an IC50 of 26.7 nM.

Compound `CS(=O)(=O)c1ccc(CN2CCC3(CC2)CN(C(=O)N2CC4(CC(n5cnc(C6CC6)n5)C4)C2)C3)cc1` [Example 486, [6-(3-cyclopropyl-1,2,4-triazol-1-yl)-2-azaspiro[3.3]heptan-2-yl]-[7-[(4-methylsulfonylphenyl)methyl]-2,7-diazaspiro[3.5]nonan-2-yl]methanone] gave an IC50 of 14.6 nM.

The compound `O=C(N1CC2(CC(Cc3cnc(C(F)(F)F)cn3)C2)C1)N1CC2(CC(n3cnc(C4(O)CC4)n3)C2)C1` [Example 487, [6-[3-(1-hydroxycyclopropyl)-1,2,4-triazol-1-yl]-2-azaspiro[3.3]heptan-2-yl]-[6-[[5-(trifluoromethyl)pyrazin-2-yl]methyl]-2-azaspiro[3.3]heptan-2-yl]methanone] gave an IC50 of 3.93 nM.

The compound `CS(=O)(=O)c1ccc(CC2CC3(C2)CN(C(=O)N2CC4(CC(n5cnc(C6CC6)n5)C4)C2)C3)nc1` [Example 488, [6-(3-cyclopropyl-1,2,4-triazol-1-yl)-2-azaspiro[3.3]heptan-2-yl]-[6-[(5-methylsulfonyl-2-pyridyl)methyl]-2-azaspiro[3.3]heptan-2-yl]methanone] came in with an IC50 of 4.41 nM.

As for `CS(=O)(=O)c1cncc(CC2CC3(C2)CN(C(=O)N2CC4(CC(n5cnc(C6CC6)n5)C4)C2)C3)c1` [Example 489, [6-(3-cyclopropyl-1,2,4-triazol-1-yl)-2-azaspiro[3.3]heptan-2-yl]-[6-[(5-methylsulfonyl-3-pyridyl)methyl]-2-azaspiro[3.3]heptan-2-yl]methanone], the IC50 turned out to be 3.28 nM.

`CS(=O)(=O)c1cccc(CC2CC3(C2)CN(C(=O)N2CC4(CC(n5cnc(C6(O)CC6)n5)C4)C2)C3)c1` [Example 490, [6-[3-(1-hydroxycyclopropyl)-1,2,4-triazol-1-yl]-2-azaspiro[3.3]heptan-2-yl]-[6-[(3-methylsulfonylphenyl)methyl]-2-azaspiro[3.3]heptan-2-yl]methanone] displayed an IC50 of 6.69 nM.

Compound `CS(=O)(=O)c1ccc(CC2CC3(C2)CN(C(=O)N2CC4(CC(n5cnc(C6(O)CC6)n5)C4)C2)C3)cc1` [Example 491, [6-[3-(1-hydroxycyclopropyl)-1,2,4-triazol-1-yl]-2-azaspiro[3.3]heptan-2-yl]-[6-[(4-methylsulfonylphenyl)methyl]-2-azaspiro[3.3]heptan-2-yl]methanone] came in with an IC50 of 6.78 nM.

`O=C(N1CC(c2ccc(NC3(C(F)(F)F)CC3)nc2)C1)N1CC2(CC(n3cnc(C4(O)CC4)n3)C2)C1` [Example 492, [6-[3-(1-hydroxycyclopropyl)-1,2,4-triazol-1-yl]-2-azaspir[3.3]heptan-2-yl]-[3-[6-[[1-(trifluoromethyl)cyclopropyl]amino]-3-pyridyl]azetidin-1-yl]methanone] yielded an IC50 of 11.1 nM.
